Laboratory results published in US6610699B2, “Use of L-carnitine and its alkanoyl derivatives in the preparation of medicaments with anticancer activity” (Sigma-Tau Industrie Farmaceutiche Riunite S.p.A., priority 1998, dated 2003).

What was measured:
[1] = system: L-MM3 murine breast cancer cells; assay: L-MM3 murine breast cancer in Balb/c mice, taxol and PLC, Experiment A (schedule A)
Experimental: (§2) Cell cultures of L-MM3 murine breast cancer cells were used, cultured at 37° C. in plastic flasks in a humidified atmosphere with 5% CO^2. The cells were grown in DMEM supplemented with 10% FCS and in the presence of 2 mM L-glutamine and 80 μg/ml of gentamicin. The subconfluent cells were collected during the exponential growth phase using trypsin-EDTA and re-suspended in DMEM. They were then injected subcutaneously in female Balb/c mice weighing 20 g at a density of 4×10^5.
(§3) The tumour was measured with a calliper three times a week as soon as it became palpable. The tumour mass is calculated on the basis of the measurements of the two dimensions (length and width), expressed in mm, according to the following formula: [formula]
(§4) If we consider conventionally a tumour density equal to 1, the result is that the tumour volume is equal to (mm^3=mg).
(§5) The agent is weighed, solubilised in the specific vehicle (12 mg/ml), and stored at +4° C., sheltered from the light. At the time of use, it is diluted 1:4 with saline solution in phosphate buffer (PBS, SIGMA) and injected.
(§6) Cremophor is diluted 1:1 with ethanol and stored sheltered from the light. On the day of treatment it is diluted 1:4 with PBS.

[2] = system: L-MM3 murine breast cancer cells; assay: L-MM3 murine breast cancer in Balb/c mice, taxol and PLC, Experiment B (schedule B)
Experimental: as §2, §3, §4, §5, §6

Hamsters [3] = assay: Bleomycin-induced pulmonary toxicity in hamsters: lung histology; type: in vivo, hamster; details: pre-treatment/IT instillation; day 22
Experimental: (§1) Hamsters weighing 120 g were treated with bleomycin (1 unit) by the intratracheal route (IT) or with an equivalent volume of saline. In addition, the animals were pre-treated with ALC (200 mg/kg) or saline intraperitoneally just before the instillation of bleomycin, followed by daily injections for 1 week. The animals were allowed 3 weeks to recover prior to taking the tissue samples. At the time tissue samples were taken (day 22), one lung of each animal was prepared for histological investigation and the other lung for quantitative determination of hydroxyproline.
The lungs were fixed by insufflation at 20 cm of H2O ex vivo with 10% formaldehyde in PBS (pH 7), embedded in paraffin, sectioned and stained with haematoxylin/eosin. Sections with similar orientation from the portion of the pulmonary lobe—upper, middle and lower, respectively—were examined to verify the presence and degree of inflammatory infiltrate, oedema and interstitial and intra-alveolar fibrosis.

Hamsters [4] = assay: Bleomycin-induced pulmonary toxicity in hamsters: lung hydroxyproline content; type: in vivo, hamster; details: pre-treatment i.p. (ALC 200 mg/kg or saline, daily 1 week)/intratracheal instillation (bleomycin 1 unit or saline); day 22
Experimental: as §1
The hydroxyproline content (one of the main constituents of collagen) was measured using the known Woessner method. Lung samples were homogenised, hydrolysed with NaOH, and then left to oxidise before adding Erlich aldehyde reagent. Duplicate aliquots of each sample were assayed by spectrophotometry and compared with a standard calibration curve obtained with purified hydroxyproline. The hydroxyproline content (HYP) is expressed as mg/lung.

## CCC(=O)O[C@H](CC(=O)[O-])C[N+](C)(C)C [PLC, propionyl L-carnitine]
[1]
  Animals with tumours/total number of animals, Day 22: 6/12
  Animals with tumours/total number of animals, Day 25: 9/12
  Animals with tumours/total number of animals, Day 28: 11/12
  Animals with tumours/total number of animals, Day 36: 12/12
  Animals with tumours/total number of animals, Day 46: 12/12
  Tumour size, Day 22: 0.6 ± 0.3
  Tumour size, Day 25: 1.2 ± 0.38
  Tumour size, Day 28: 3 ± 0.4
  Tumour size, Day 36: 9.5 ± 0.8
  Tumour size, Day 46: 15 ± 1.1
[1]; day of inoculation
  Tumour size, Day 0: 0
[1]; taxol 30 mg/kg i.p. days 15,17,19,21, PLC 100 mg/kg s.c. days 12-24
  Animals with tumours/total number of animals, Day 19: 4/12
[2]
  Animals with tumours/total animals, Day 45: 8/10
  Animals with tumours/total animals, Day 59: 8/10
  Tumour size, Day 26: 0.4 ± 0.3
  Tumour size, Day 31: 0.5 ± 0.3
  Tumour size, Day 37: 1.3 ± 0.6
  Tumour size, Day 41: 2.2 ± 1.0
  Tumour size, Day 45: 3.9 ± 1.2
  Tumour size, Day 53: 5.6 ± 1.4
  Tumour size, Day 59: 8 ± 2.2
[2]; day of inoculation
  Tumour size, Day 0: 0
[2]; taxol 30 mg/kg i.p. days 8,10,12,14, PLC 100 mg/kg s.c. to day 59
  Animals with tumours/total animals, Day 31: 3/10

## bleomycin [Saline/bleomycin, reference compound]
Hamsters [3]
  lung histology (in words): dense fibrosis, alveolar atelectasis and oedema
Hamsters [4]
  hydroxyproline content (HYP): 1.831 mg/lung
